From patent US6579519B2, “Sustained release and long residing ophthalmic formulation and the process of preparing the same” (Registrar, University of Delhi, priority 2000, dated 2003)

Assay: Maximum drug dissolved in polymeric micelles
Format: physicochemical
Conditions: room temperature
Experimental: In 100 mg of the lyophilized powder of the polymeric micelles nanoparticles, an alcoholic solution of indomethacin ([Indomethacin]=33 mg/ml) was added with constant stirring to get clear solution of polymeric micelles containing the drug of desired concentration dispersed in aqueous buffer. […] The drug loaded polymeric micelles was then lyophilized to get dry powder for subsequent use.
In 100 mg of dry powder of polymeric micelles, an alcoholic solution of nimesulide ([nimesulide]=10 mg/ml) was added with constant stirring to get clear solution. […] The drug loaded micelles was then lyophilized to get dry powder for subsequent use.

## COc1ccc2c(c1)c(CC(=O)O)c(C)n2C(=O)c1ccc(Cl)cc1 [indomethacin, 1-(4 chlorobenzoyl)-5 methoxy-2-methyl-1H-indole-3acetic acid]
  Maximum of the drug dissolved in polymeric micelles: 10 % w/w

## CS(=O)(=O)Nc1ccc([N+](=O)[O-])cc1Oc1ccccc1 [nimesulide, N-(4-nitro-2 phenoxyphenyl) methanesulphonamide]
  Maximum of the drug dissolved in polymeric micelles: 8 % w/w
